Data set [1] relates to primary human T cells. The experiment in a line: Transient transfection of activated primary human T cells with DNA LNPs, GFP expression by flow cytometry. Format: cell-based. As to the method: Separate compositions of CD4+ and CD8+ cells were selected by immunoaffinity-based enrichment from isolated PBMCs from leukapheresis samples from four healthy human donors. The selected cell compositions were cryopreserved, subsequently thawed and combined in culture at a 1:1 ratio of viable CD4+ to viable CD8+ cells. The combined CD4+ and CD8+ cell composition was then incubated for 48 hours with anti-CD3/CD28 beads (1:1 cell-to-bead ratio) in media containing recombinant IL-2, IL-7, and IL-15 to activate (stimulate) the T cells. […] The cells were cultured in media supplemented with 1 μg/mL of apolipoprotein E4 (ApoE4) to support cellular uptake of the LNPs.
Cells were analyzed by flow cytometry 24 to 48 hours after transfection to determine cell viability and transient GFP expression. Cell viability was determined by quantification of dead cells using SYTOX™ blue dead cell stain and GFP expression was determined via flow cytometry.
Formulations as described in Table E4 were used to transiently transfect human T cells at a 6.0 μg/mL DNA dosing concentration (final concentration with cells), and the effects of varying the described parameters on cell viability and transfection efficiency of T cells were assessed. A combined CD4+ and CD8+ T cell composition was generated and activated substantially as described in Example 2, and incubated in media with […] ApoE4 and LNPs generated from the various formulations for approximately 24 hours at 37° Celsius, 5% CO2, to allow for transfection. Following incubation, cells were assessed for viability and transfection efficiency as described in Example 2. Increasing ionizable lipid mass fraction percentage decreased transfection efficiency (p<0.05; left panel of FIGS. 6A), while there was no statistically significant effect of helper lipid or PEG lipid mass fraction percentage on transfection efficiency (middle and right panels, respectively, of FIG. 6A).
(Flow cytometry measures light scatter and fluorescence of single cells or particles in a stream.)

The nature of data set [2]: DNA loading into LNPs, Quant-iT PicoGreen dsDNA assay. Format: physicochemical. The conditions noted are these: Example 4a, Table E14 formulations. As to the method: The resulting LNPs were sized by dynamic light scattering (DLS) before being stored overnight at 5 Celsius. Following overnight incubation, the LNPs were again sized by DLS, and then sterile filtered in a biosafety cabinet. LNPs having an Z-average particle size greater than 200 nm in diameter were filtered using a 0.45 µm filter. All other LNPs were filtered using a 0.2 µm filter. Following sterile filtration, the LNPs were sized a final time by DLS. The LNPs were also assessed for DNA loading, as determined by the Quant-iT™ PicoGreen™ dsDNA broad range DNA assay. Percent DNA loading was calculated as 100×(signal of sample with Triton-X−signal of sample in DI water)/(signal of sample with Triton-X).

Consider 2 compounds from patent US20250382640A1, “LIPID NANOPARTICLES FOR DELIVERY OF NUCLEIC ACIDS” (Juno Therapeutics, Inc., priority 2022, published 2025).

SMILES strings stand for the structures. “Also recorded” adds a separate entry of the source.

Turning to `CCCCC/C=C\C/C=C\CCCCCCCC(=O)OCCCCN(CCCCOC(=O)CCCCCCC/C=C\C/C=C\CCCCC)CCCCC1NC(=O)C(CCCCN(CCCCOC(=O)CCCCCCC/C=C\C/C=C\CCCCC)CCCCOC(=O)CCCCCCC/C=C\C/C=C\CCCCC)NC1=O` (stereo not shown) [OF-C4-Deg-Lin], the “transient transfection in T cells (GFP expression)” value in data set [1] (F9 and F9A formulations with various ionizable lipids, 24 hours) is listed as “highest levels of transient transfection”.
As to `CCCCC/C=C\C/C=C\CCCCCCCCC1(CCCCCCCC/C=C\C/C=C\CCCCC)OCC(CCN(C)C)O1` (stereo not shown) [DLin-KC2-DMA, 2,2-dilinoleyl-4-dimethylaminoethyl-[1,3]-dioxolane], in data set [2], the DNA loading entry was “consistently high DNA loading”. The transfection efficiency result in data set [1] (Example 4a, alkyl chain linker length, Table E14 formulations) was “higher transfection efficiency compared to the other lipids; also recorded: highest transfection efficiency”; in data set [1] (Example 4b, heterocyclic headgroup, Table E16 formulations), “highest”.
